In this test the target is Human Factor D (Homo sapiens (Human), UniProt P00746). Briefly: Human Factor D Assay. Type of test: biochemical. Conditions: Table 5; Human Factor D 80 nM, substrate Z-L-Lys-SBzl; read-out: IC50 (Stars). The method, then: Human Factor D (purified from human serum, Complement Technology, Inc.) at 80 nM final concentration is incubated with test compound at various concentrations for 5 min at room temperature in 50 mM Tris, 1M NaCl, pH 7.5. A synthetic substrate Z-L-Lys-SBzl and DTNB (Ellman's reagent) are added to final concentrations of 100 μM each. Absorbance at 405 nm (A405) is recorded at 30 second intervals for 30 min using a microplate spectrophotometer. IC50 values are calculated by nonlinear regression of Complement Factor D reaction rates as a function of test compound concentration.
Human Factor D, sequence (P00746 26-253): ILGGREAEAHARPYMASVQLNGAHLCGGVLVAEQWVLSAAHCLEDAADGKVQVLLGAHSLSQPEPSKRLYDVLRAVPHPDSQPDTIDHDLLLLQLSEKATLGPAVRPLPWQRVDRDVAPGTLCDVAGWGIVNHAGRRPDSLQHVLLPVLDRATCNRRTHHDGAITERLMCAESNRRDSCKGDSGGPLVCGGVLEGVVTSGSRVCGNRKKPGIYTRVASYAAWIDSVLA
Take `CC(=O)c1nn(CC(=O)N2C[C@H]3C[C@H]3[C@H]2C(=O)Nc2nc(Br)ccc2C)c2cc(C)sc12` [Compound T-2, (1R,2S,5S)-3-(2-(3-acetyl-5-methyl-1H-thieno[3,2-c]pyrazol-1-yl)acetyl)-N-(6-bromo-3-methylpyridin-2-yl)-3-azabicyclo[3.10]hexane-2-carboxamide]: the IC50 was below 1000 nM.
For the compound `CC(=O)c1nn(CC(=O)N2C[C@H](F)C[C@H]2C(=O)Nc2cccc(Br)n2)c2ccc(S(C)(=N)=O)cc12` (stereo partly drawn) [Compound T-3, (2S,4R)-1-(2-(3-acetyl-5-(S-methylsulfonimidoyl)-1H-indazol-1-yl)acetyl)-N-(6-bromopyridin-2-yl)-4-fluoropyrrolidine-2-carboxamide], the 50% inhibitory concentration (IC50) was below 1000 nM.
Take `CC(=O)c1nn(CC(=O)N2C[C@H](F)C[C@H]2C(=O)Nc2cccc(Br)n2)c2cc(/S(C)=N/C(=O)C(F)(F)F)ccc12` (stereo partly drawn) [Compound T-4, (2S,4R)-1-(2-(3-acetyl-6-((E)-S-methyl-N-(2,2,2-trifluoroacetyl)sulfinimidoyl)-1H-indazol-1-yl)acetyl)-N-(6-bromopyridin-2-yl)-4-fluoropyrrolidine-2-carboxamide]: the IC50 is below 1000 nM.
With `CC(=O)c1nn(CC(=O)N2C[C@H](F)C[C@H]2C(=O)Nc2cccc(Br)n2)c2cc(S(C)(=N)=O)ccc12` (stereo partly drawn) [Compound T-5, (2S,4R)-1-(2-(3-acetyl-6-(S-methylsulfonimidoyl)-1H-indazol-1-yl)acetyl)-N-(6-bromopyridin-2-yl)-4-fluoropyrrolidine-2-carboxamide] the figure was below 1000 nM.
The same measure for `CC(=O)c1nn(CC(=O)N2[C@H](C(=O)Nc3cccc(Br)n3)C[C@@]3(C)C[C@@H]23)c2cc(S(C)(=N)=O)ccc12` (stereo partly drawn) [Compound T-6, (1R,3S,5R)-2-(2-(3-acetyl-6-(S-methylsulfonimidoyl)-1H-indazol-1-yl)acetyl)-N-(6-bromopyridin-2-yl)-5-methyl-2-azabicyclo[3.1.0]hexane-3-carboxamide]: below 1000 nM; for `CC(=O)c1nn(CC(=O)N2C[C@H]3C[C@H]3[C@H]2C(=O)Nc2cccc(Br)n2)c2cc(S(C)(=N)=O)ccc12` (stereo partly drawn) [Compound T-7, (1R,2S,5S)-3-(2-(3-acetyl-6-(S-methylsulfonimidoyl)-1H-indazol-1-yl)acetyl)-N-(6-bromopyridin-2-yl)-3-azabicyclo[3.1.0]hexane-2-carboxamide]: below 1000 nM.
For `CC(=O)c1nn(CC(=O)N2C[C@H](F)C[C@H]2C(=O)NCC23C4C5C6C4C2C6C53)c2ccccc12` (stereo partly drawn) [Compound T-8, (2S,4R)-1-(2-(3-acetyl-1H-indazol-1-yl)acetyl)-N-(cuban-1-ylmethyl)-4-fluoropyrrolidine-2-carboxamide], the concentration for half-maximal inhibition (IC50) lay in the range of 1000 to 10000 nM.
On to `CC(=O)c1nn(CC(=O)N2[C@H](C(=O)Nc3nc(Br)ccc3C)C[C@@]3(C)C[C@@H]23)c2ccc(NC(=O)C3CCCCC3(F)F)cc12` (stereo partly drawn) [Compound T-9, (1R,3S,5R)-2-(2-(3-acetyl-5-(2,2-difluorocyclohexane-1-carboxamido)-1H-indazol-1-yl)acetyl)-N-(6-bromo-3-methylpyridin-2-yl)-5-methyl-2-azabicyclo[3.10]hexane-3-carboxamide], for which the concentration for half-maximal inhibition (IC50) is below 1000 nM.
For the compound `CC(=O)c1nn(CC(=O)N2C[C@H]3C[C@H]3[C@H]2C(=O)Nc2nc(Br)ccc2C2CC2)c2cc(C)sc12` [Compound T-10, (1R,2S,5S)-3-(2-(3-acetyl-5-methyl-1H-thieno[3,2-c]pyrazol-1-yl)acetyl)-N-(6-bromo-3-cyclopropylpyridin-2-yl)-3-azabicyclo[3.1.0]hexane-2-carboxamide], the IC50 was below 1000 nM.
On to `CC(=O)c1nn(CC(=O)N2C[C@H](F)C[C@H]2C(=O)Nc2cccc(Br)n2)c2cc(S(C)(=O)=NC#N)ccc12` (stereo partly shown) [Compound T-11], for which the 50% inhibitory concentration (IC50) was below 1000 nM.
For the compound `CC(=O)c1nn(CC(=O)N2[C@H](C(=O)Nc3nc(Br)ccc3C)C[C@@]3(C)C[C@@H]23)c2ccccc12` [Compound T-13, (1R,3S,5R)-2-(2-(3-acetyl-1H-indazol-1-yl)acetyl)-N-(6-bromo-3-methylpyridin-2-yl)-5-methyl-2-azabicyclo[3.1.0]hexane-3-carboxamide], the IC50 is below 1000 nM.
`CC(=O)c1ccn(CC(=O)N2C[C@H](F)C[C@H]2C(=O)Nc2cccc(Br)n2)n1` [Compound T-14, (2S,4R)-1-(2-(3-acetyl-1H-pyrazol-1-yl)acetyl)-N-(6-bromopyridin-2-yl)-4-fluoropyrrolidine-2-carboxamide]: the half-maximal inhibitory concentration (IC50) is below 1000 nM.
The same measure for `NC(=O)c1cc(C(F)(F)F)n(CC(=O)N2C[C@H](F)C[C@H]2C(=O)Nc2cccc(Br)n2)n1` [Compound T-15, 1-(2-((2S,4R)-2-((6-bromopyridin-2-yl)carbamoyl)-4-fluoropyrrolidin-1-yl)-2-oxoethyl)-5-(trifluoromethyl)-1H-pyrazole-3-carboxamide]: below 1000 nM; for `COC(=O)c1cc(C(C)=O)cn1CC(=O)N1C[C@H](F)C[C@H]1C(=O)Nc1cccc(Br)n1` [Compound T-16, methyl 4-acetyl-1-(2-((2S,4R)-2-((6-bromopyridin-2-yl)carbamoyl)-4-fluoropyrrolidin-1-yl)-2-oxoethyl)-1H-pyrrole-2-carboxylate]: 1000 to 10000 nM; for `CC(=O)c1cc(C(=O)O)n(CC(=O)N2C[C@H](F)C[C@H]2C(=O)Nc2cccc(Br)n2)c1` [Compound T-17, 4-acetyl-1-(2-((2S,4R)-2-((6-bromopyridin-2-yl)carbamoyl)-4-fluoropyrrolidin-1-yl)-2-oxoethyl)-1H-pyrrole-2-carboxylic acid]: below 1000 nM.
With `CC(=O)c1cc(C(=O)N2CCC(F)(F)C2)n(CC(=O)N2C[C@H](F)C[C@H]2C(=O)Nc2cccc(Br)n2)c1` [Compound T-18, (2S,4R)-1-(2-(4-acetyl-2-(3,3-difluoropyrrolidine-1-carbonyl)-1H-pyrrol-1-yl)acetyl)-N-(6-bromopyridin-2-yl)-4-fluoropyrrolidine-2-carboxamide], the IC50 was above 10000 nM.
The same measure for `CC(=O)c1cc(C(=O)NCc2cnc(C)nc2)n(CC(=O)N2C[C@H](F)C[C@H]2C(=O)Nc2cccc(Br)n2)c1` [Compound T-19, 4-acetyl-1-(2-((2S,4R)-2-((6-bromopyridin-2-yl)carbamoyl)-4-fluoropyrrolidin-1-yl)-2-oxoethyl)-N-((2-methylpyrimidin-5-yl)methyl)-1H-pyrrole-2-carboxamide]: below 1000 nM; for `CC(=O)c1cn(CC(=O)N2C[C@H](F)C[C@H]2C(=O)Nc2cccc(Br)n2)c(C)n1` [Compound T-20, (2S,4R)-1-(2-(4-acetyl-2-methyl-1H-imidazol-1-yl)acetyl)-N-(6-bromopyridin-2-yl)-4-fluoropyrrolidine-2-carboxamide]: above 10000 nM.
Regarding `CCOC(=O)/C=C/c1cn(CC(=O)N2C[C@H](F)C[C@H]2C(=O)Nc2cccc(Br)n2)nc1C(N)=O` [Compound T-22, (E)-ethyl 3-(1-(2-((2S,4R)-2-((6-bromopyridin-2-yl)carbamoyl)-4-fluoropyrrolidin-1-yl)-2-oxoethyl)-3-carbamoyl-1H-pyrazol-4-yl)acrylate], the IC50 fell in the range of 1000 to 10000 nM.
Regarding `CC(=O)c1cc(C(N)=O)n(CC(=O)N2C[C@H](F)C[C@H]2C(=O)Nc2cccc(Br)n2)n1` [Compound T-23, 3-acetyl-1-(2-((2S,4R)-2-((6-bromopyridin-2-yl)carbamoyl)-4-fluoropyrrolidin-1-yl)-2-oxoethyl)-1H-pyrazole-5-carboxamide], the IC50 was below 1000 nM.
The same measure for `CC(=O)c1cc(C(=O)NCc2cscn2)n(CC(=O)N2C[C@H](F)C[C@H]2C(=O)Nc2cccc(Br)n2)n1` [Compound T-24, 3-acetyl-1-(2-((2S,4R)-2-((6-bromopyridin-2-yl)carbamoyl)-4-fluoropyrrolidin-1-yl)-2-oxoethyl)-N-(thiazol-4-ylmethyl)-1H-pyrazole-5-carboxamide]: below 1000 nM; for `CC(=O)c1nn(CC(=O)N2[C@H](C(=O)Nc3nc(Br)ccc3C)C[C@@]3(C)C[C@@H]23)c2ccc(NC(=O)C3CCCC3(F)F)cc12` (stereo partly drawn) [Compound T-27, (1R,3S,5R)-2-(2-(3-acetyl-5-(2,2-difluorocyclopentane-1-carboxamido)-1H-indazol-1-yl)acetyl)-N-(6-bromo-3-methylpyridin-2-yl)-5-methyl-2-azabicyclo[3.1.0]hexane-3-carboxamide]: below 1000 nM.
Turning to `NC(=O)c1nn(CC(=O)N2C[C@H](F)C[C@H]2C(=O)Nc2cccc(Br)n2)cc1/C=C/C(=O)NC1CC1` [Compound T-28, 1-(2-((2S,4R)-2-((6-bromopyridin-2-yl)carbamoyl)-4-fluoropyrrolidin-1-yl)-2-oxoethyl)-4-((E)-3-(cyclopropylamino)-3-oxoprop-1-en-1-yl)-1H-pyrazole-3-carboxamide], the IC50 was 1000 to 10000 nM.
As to `CC(=O)c1nn(CC(=O)N2[C@H](C(=O)Nc3nc(Br)ccc3C)C[C@@]3(C)C[C@@H]23)c2ccc(OC(=O)NC3CC3)cc12` [Compound T-32, 3-acetyl-1-(2-((1R,3S,5R)-3-((6-bromo-3-methylpyridin-2-yl)carbamoyl)-5-methyl-2-azabicyclo[3.1.0]hexan-2-yl)-2-oxoethyl)-1H-indazol-5-yl cyclopropylcarbamate], the IC50 was below 1000 nM.
With `CC(=O)c1nn(CC(=O)N2[C@H](C(=O)Nc3nc(Br)ccc3C)C[C@@]3(C)C[C@@H]23)c2cc(S(C)(=N)=O)ccc12` (stereo partly drawn) [Compound T-33, (1R,3S,5R)-2-(2-(3-acetyl-6-(S-methylsulfonimidoyl)-1H-indazol-1-yl)acetyl)-N-(6-bromo-3-methylpyridin-2-yl)-5-methyl-2-azabicyclo[3.1.0]hexane-3-carboxamide] the figure was below 1000 nM.

Source of the values: patent US11447465B2, “Pharmaceutical compounds for treatment of medical disorders” (Achillion Pharmaceuticals, Inc., priority 2017, dated 2022).
